Test results taken from patent US8314143B2, “Synthetic flavonoids and pharmaceutical compositions and therapeutic methods of treatment of HIV infection and other pathologies” (Florida A&M University, priority 2006, dated 2012).
Several values for one entry are separate records, joined by “and”; a condition that tells them apart may be missing. Equal entries are not always repeated. Entries after “also recorded” stand apart in the source; their conditions may differ. Where two headings read alike, the source gives them in different places.

Tests used:
Assay type in all cases: cell-based
[1] = tested on: H-9 cells; assay: Cytoxicity on H-9 cells (drug inhibition, cell count); settings: for H-9 Mean (drug inhibition): Table 4 summary; for % Inhibition Mean / Cells (×10^4) Mean / % Inhibition / Cells (×10^4): Exp. Dec. 05 to Dec. 09, 2005; for % Inhibition / Cells (×10^4): single replicates; for inhibitory activity compared to AZT: same conditions as AZT
Excerpt: (§1) The purified and identified analogs were subjected to in vitro biological testing. […] These three congeners were further evaluated in H9 and PC3 cells. AZT was employed as a positive control in all of these experiments.

[2] = tested on: MCF-7 cells; assay: Cytoxicity on MCF-7 cells (drug inhibition, cell count); design: Drug Inhibition on MCF-7 Cells / MCF-7 Mean (drug inhibition) / Drug inhibition on MCF-7 Cells Mean: unit not given here; settings: for Drug Inhibition on MCF-7 Cells: Table 8 summary; for response to MCF-7 cells in the different drug concentrations / Drug Inhibition on MCF-7 Cells / % Inhibition Mean / Cells (×10^4) Mean / % Inhibition / Cells (×10^4) / inhibitory activity compared to AZT: MCF-7 cells; for inhibitory activity compared to AZT: same conditions as AZT; for inhibition at 1 µg/mL / inhibition at 5 µg/mL / inhibition at 10 µg/mL / inhibition at 50 µg/mL: Homo sapiens, MCF7, MCF-7 cells
Excerpt: as §1

[3] = tested on: PC-3 cells; assay: Cytoxicity on PC-3 cells (drug inhibition, cell count); settings: for Drug Inhibition on PC-3 cells: Table 7; for % Inhibition Mean / Cells (×10^4) Mean / % Inhibition / Cells (×10^4): Exp. Nov. 11 to Nov. 17, 2005; for % Inhibition / Cells (×10^4): single replicates; for inhibitory activity compared to AZT: same conditions as AZT
Excerpt: The purified and identified analogs were subjected to in vitro biological testing.

[4] = 1 μg/ml, mean, Exp. Nov. 14 to Nov. 18, 2005
[5] = 1 μg/ml, single replicates, Exp. Nov. 14 to Nov. 18, 2005
[6] = 5 μg/ml, mean, Exp. Nov. 14 to Nov. 18, 2005
[7] = 5 μg/ml, single replicates, Exp. Nov. 14 to Nov. 18, 2005
[8] = 10 μg/ml, mean, Exp. Nov. 14 to Nov. 18, 2005
[9] = 10 μg/ml, single replicates, Exp. Nov. 14 to Nov. 18, 2005
[10] = 50 μg/ml, mean, Exp. Nov. 14 to Nov. 18, 2005
[11] = 50 μg/ml, single replicates, Exp. Nov. 14 to Nov. 18, 2005

COc1ccc(C=CC(=O)c2cc(Cl)cc(Cl)c2O)cc1OC [CHCl 2M]
H-9 Mean (drug inhibition) ([1]; 1 μg/ml): 15.92
% Inhibition Mean ([1]; 1 μg/ml): 15.92%
Cells (×10^4) Mean ([1]; 1 μg/ml): 42.25 ×10^4
% Inhibition ([1]; 1 μg/ml): 16.42% and 15.92% and 15.42%
Cells (×10^4) ([1]; 1 μg/ml): 42.0 ×10^4 and 42.3 ×10^4 and 42.6 ×10^4
H-9 Mean (drug inhibition) ([1]; 5 μg/ml): 52.24
% Inhibition Mean ([1]; 5 μg/ml): 52.24%
Cells (×10^4) Mean ([1]; 5 μg/ml): 24.00 ×10^4
% Inhibition ([1]; 5 μg/ml): 52.24% and 52.74% and 51.74%
Cells (×10^4) ([1]; 5 μg/ml): 24.0 ×10^4 and 23.8 ×10^4 and 24.3 ×10^4
H-9 Mean (drug inhibition) ([1]; 10 μg/ml): 74.3
% Inhibition Mean ([1]; 10 μg/ml): 74.30%
Cells (×10^4) Mean ([1]; 10 μg/ml): 12.92 ×10^4
% Inhibition ([1]; 10 μg/ml): 74.13% and 77.11% and 71.64%
Cells (×10^4) ([1]; 10 μg/ml): 13.0 ×10^4 and 11.5 ×10^4 and 14.3 ×10^4
H-9 Mean (drug inhibition) ([1]; 50 μg/ml): 91.04
% Inhibition Mean ([1]; 50 μg/ml): 91.04%
Cells (×10^4) Mean ([1]; 50 μg/ml): 4.50 ×10^4
% Inhibition ([1]; 50 μg/ml): 92.04% and 91.04% and 90.05%
Cells (×10^4) ([1]; 50 μg/ml): 4.0 ×10^4 and 4.5 ×10^4 and 5.0 ×10^4
inhibitory activity compared to AZT [1]: much superior inhibitory activities; also recorded: as good or somewhat better
response to MCF-7 cells in the different drug concentrations [2]: good activities
Drug Inhibition on MCF-7 Cells ([2]; 1 μg/ml): 14.55
% Inhibition Mean [2, 4]: 14.55%
Cells (×10^4) Mean [2, 4]: 49.42 ×10^4
% Inhibition [2, 5]: 13.98% and 16.14% and 13.54%
Cells (×10^4) [2, 5]: 49.8 ×10^4 and 48.5 ×10^4 and 50.0 ×10^4
Drug Inhibition on MCF-7 Cells ([2]; 5 μg/ml): 44.09
% Inhibition Mean [2, 6]: 44.09%
Cells (×10^4) Mean [2, 6]: 32.33 ×10^4
% Inhibition [2, 7]: 44.67% and 45.53% and 42.07%
Cells (×10^4) [2, 7]: 32.0 ×10^4 and 31.5 ×10^4 and 33.5 ×10^4
Drug Inhibition on MCF-7 Cells ([2]; 10 μg/ml): 81.99
% Inhibition Mean [2, 8]: 81.99%
Cells (×10^4) Mean [2, 8]: 10.42 ×10^4
% Inhibition [2, 9]: 82.71% and 81.41% and 81.84%
Cells (×10^4) [2, 9]: 10.0 ×10^4 and 10.8 ×10^4 and 10.5 ×10^4
Drug Inhibition on MCF-7 Cells ([2]; 50 μg/ml): 98.70
% Inhibition Mean [2, 10]: 98.70%
Cells (×10^4) Mean [2, 10]: 0.75 ×10^4
% Inhibition [2, 11]: 98.27% and 99.14% and 98.70%
Cells (×10^4) [2, 11]: 1.0 ×10^4 and 0.5 ×10^4 and 0.8 ×10^4
inhibitory activity compared to AZT [2]: much superior inhibitory activities; also recorded: as good or somewhat better
Drug Inhibition on PC-3 cells ([3]; 1 μg/ml): 42.4
% Inhibition Mean ([3]; 1 μg/ml): 25.09%
Cells (×10^4) Mean ([3]; 1 μg/ml): 73.42 ×10^4
% Inhibition ([3]; 1 μg/ml): 24.23% and 24.49% and 26.53%
Cells (×10^4) ([3]; 1 μg/ml): 74.3 ×10^4 and 74.0 ×10^4 and 72.0 ×10^4
Drug Inhibition on PC-3 cells ([3]; 5 μg/ml): 73.76
% Inhibition Mean ([3]; 5 μg/ml): 28.57%
Cells (×10^4) Mean ([3]; 5 μg/ml): 70.00 ×10^4
% Inhibition ([3]; 5 μg/ml): 29.59% and 29.08% and 27.04%
Cells (×10^4) ([3]; 5 μg/ml): 69.0 ×10^4 and 69.5 ×10^4 and 71.5 ×10^4
Drug Inhibition on PC-3 cells ([3]; 10 μg/ml): 87.02
% Inhibition Mean ([3]; 10 μg/ml): 29.00%
Cells (×10^4) Mean ([3]; 10 μg/ml): 69.58 ×10^4
% Inhibition ([3]; 10 μg/ml): 30.61% and 28.57% and 27.81%
Drug Inhibition on PC-3 cells ([3]; 50 μg/ml): 96.96
% Inhibition Mean ([3]; 50 μg/ml): 36.65%
Cells (×10^4) Mean ([3]; 50 μg/ml): 62.08 ×10^4
% Inhibition ([3]; 50 μg/ml): 31.88% and 33.16% and 45.41%
Cells (×10^4) ([3]; 50 μg/ml): 67.3 ×10^4 and 65.5 ×10^4 and 53.5 ×10^4
inhibitory activity compared to AZT [3]: much superior inhibitory activities; also recorded: as good or somewhat better

COc1cc(C=CC(=O)c2cc(C)cc([N+](=O)[O-])c2O)cc(OC)c1OC [CHNM 3M]
inhibitory activity compared to AZT [1]: much superior inhibitory activities
inhibition at 1 µg/mL ([2]; drug 1 μg/ml, mean of replicates, vs 2% DMSO, read-out: % Inhibition Mean): 12.6%
inhibition at 1 µg/mL ([2]; drug 1 μg/ml, single replicate, vs 2% DMSO, read-out: % Inhibition): 13.1%
inhibition at 5 µg/mL ([2]; drug 5 μg/ml, mean of replicates, vs 2% DMSO, read-out: % Inhibition Mean): 51.4%
inhibition at 5 µg/mL ([2]; drug 5 μg/ml, single replicate, vs 2% DMSO, read-out: % Inhibition): 49.4%
inhibition at 10 µg/mL ([2]; drug 10 μg/ml, mean of replicates, vs 2% DMSO, read-out: % Inhibition Mean): 90.3%
inhibition at 10 µg/mL ([2]; drug 10 μg/ml, single replicate, vs 2% DMSO, read-out: % Inhibition): 90.2%
inhibition at 50 µg/mL ([2]; drug 50 μg/ml, mean of replicates, vs 2% DMSO, read-out: % Inhibition Mean): 96.6%
inhibition at 50 µg/mL ([2]; drug 50 μg/ml, single replicate, vs 2% DMSO, read-out: % Inhibition): 96.6%
response to MCF-7 cells in the different drug concentrations [2]: good activities
Cells (×10^4) Mean ([2]; drug 1 μg/ml, mean of replicates): 44.50 ×10^4
Cells (×10^4) ([2]; drug 1 μg/ml, single replicate count): 44.3 ×10^4 (2×) and 45.0 ×10^4
% Inhibition ([2]; drug 1 μg/ml, single replicate, vs 2% DMSO): 11.62%
Cells (×10^4) Mean ([2]; drug 5 μg/ml, mean of replicates): 24.75 ×10^4
Cells (×10^4) ([2]; drug 5 μg/ml, single replicate count): 25.8 ×10^4 and 24.0 ×10^4 and 24.5 ×10^4
% Inhibition ([2]; drug 5 μg/ml, single replicate, vs 2% DMSO): 52.86% and 51.88%
Cells (×10^4) Mean ([2]; drug 10 μg/ml, mean of replicates): 4.92 ×10^4
Cells (×10^4) ([2]; drug 10 μg/ml, single replicate count): 5.0 ×10^4 (2×) and 4.8 ×10^4
% Inhibition ([2]; drug 10 μg/ml, single replicate, vs 2% DMSO): 90.67%
Cells (×10^4) Mean ([2]; drug 50 μg/ml, mean of replicates): 1.75 ×10^4
Cells (×10^4) ([2]; drug 50 μg/ml, single replicate count): 1.8 ×10^4 and 2.0 ×10^4 and 1.5 ×10^4
% Inhibition ([2]; drug 50 μg/ml, single replicate, vs 2% DMSO): 96.07% and 97.05%
inhibitory activity compared to AZT [2]: much superior inhibitory activities
inhibitory activity compared to AZT [3]: much superior inhibitory activities
